# Assay results as given in patent US20140058103A1, “Inhibitors of PI3K-Delta and Methods of Their Use and Manufacture” (Exelixis, Inc., priority 2010, published 2014).
# Biological target: PI3K delta (Homo sapiens, UniProt O00329)
# Assay: Luciferase-coupled chemiluminescence kinase assay (ATP consumption, KinaseGlo)
# Assay type: biochemical
# Summary of the method: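 Compound, kinase and ATP (≤ KM) reacted 2 h at ambient temperature, then remaining ATP quantified with luciferase-luciferin (KinaseGlo) luminescence as percent consumed.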
# Sequence of PI3K delta (O00329 whole entry): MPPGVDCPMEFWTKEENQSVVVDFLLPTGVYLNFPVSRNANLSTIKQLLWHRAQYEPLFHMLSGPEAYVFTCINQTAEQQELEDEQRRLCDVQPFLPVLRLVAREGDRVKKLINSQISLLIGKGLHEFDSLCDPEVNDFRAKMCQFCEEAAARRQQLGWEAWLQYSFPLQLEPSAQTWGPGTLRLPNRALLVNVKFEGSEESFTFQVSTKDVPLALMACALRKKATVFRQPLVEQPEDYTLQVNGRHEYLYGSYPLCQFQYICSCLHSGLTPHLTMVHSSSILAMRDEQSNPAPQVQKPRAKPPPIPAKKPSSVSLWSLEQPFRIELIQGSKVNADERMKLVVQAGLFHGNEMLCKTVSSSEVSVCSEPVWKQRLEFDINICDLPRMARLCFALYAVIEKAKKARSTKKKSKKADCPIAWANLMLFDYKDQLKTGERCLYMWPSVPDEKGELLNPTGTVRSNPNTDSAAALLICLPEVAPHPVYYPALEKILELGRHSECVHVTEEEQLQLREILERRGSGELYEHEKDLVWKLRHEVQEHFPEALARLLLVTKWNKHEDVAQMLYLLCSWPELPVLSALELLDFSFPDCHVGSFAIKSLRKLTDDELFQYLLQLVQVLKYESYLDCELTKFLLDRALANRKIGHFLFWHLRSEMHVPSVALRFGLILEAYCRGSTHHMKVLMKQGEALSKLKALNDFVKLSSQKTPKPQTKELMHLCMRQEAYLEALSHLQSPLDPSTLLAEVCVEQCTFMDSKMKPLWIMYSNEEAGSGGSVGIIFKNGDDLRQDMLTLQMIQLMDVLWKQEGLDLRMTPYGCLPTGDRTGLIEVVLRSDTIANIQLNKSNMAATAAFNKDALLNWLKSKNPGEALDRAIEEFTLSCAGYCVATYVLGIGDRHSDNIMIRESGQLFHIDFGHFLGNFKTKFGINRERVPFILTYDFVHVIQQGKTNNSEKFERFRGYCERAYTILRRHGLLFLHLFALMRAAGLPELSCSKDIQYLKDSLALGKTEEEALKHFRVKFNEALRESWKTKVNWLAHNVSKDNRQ
# Sequence of PI3K delta (P27986 whole entry partner): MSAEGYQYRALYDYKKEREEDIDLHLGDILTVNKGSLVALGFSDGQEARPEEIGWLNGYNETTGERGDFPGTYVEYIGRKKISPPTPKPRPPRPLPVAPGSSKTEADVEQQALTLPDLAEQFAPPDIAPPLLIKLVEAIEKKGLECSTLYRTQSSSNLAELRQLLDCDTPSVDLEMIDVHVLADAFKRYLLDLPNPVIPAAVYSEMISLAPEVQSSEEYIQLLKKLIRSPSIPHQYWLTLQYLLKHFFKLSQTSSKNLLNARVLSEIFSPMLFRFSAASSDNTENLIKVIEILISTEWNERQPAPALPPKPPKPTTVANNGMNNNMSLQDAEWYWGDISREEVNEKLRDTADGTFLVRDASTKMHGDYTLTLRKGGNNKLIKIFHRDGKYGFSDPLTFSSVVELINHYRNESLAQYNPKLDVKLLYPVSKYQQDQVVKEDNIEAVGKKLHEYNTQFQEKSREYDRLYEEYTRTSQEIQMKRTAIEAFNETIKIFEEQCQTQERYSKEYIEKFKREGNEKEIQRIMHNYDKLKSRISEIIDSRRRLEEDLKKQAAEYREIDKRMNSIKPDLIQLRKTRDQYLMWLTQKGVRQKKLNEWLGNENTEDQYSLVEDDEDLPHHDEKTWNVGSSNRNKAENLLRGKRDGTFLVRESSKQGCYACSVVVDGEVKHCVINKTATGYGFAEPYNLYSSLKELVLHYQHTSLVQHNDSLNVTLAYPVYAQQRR
row,SMILES,IC50
1,"Cn1c(-c2cocn2)nc2c(N3CCC(n4c(=O)[nH]c5ccccc54)CC3)ncnc21 [Compound 179, 1-{1-[9-methyl-8-(1,3-oxazol-4-yl)-9H-purin-6-yl]piperidin-4-yl}-1,3-dihydro-2H-benzimidazol-2-one]",500 to 1500 nM
2,"CCOC(=O)Cn1cc(-c2nc3c(N4CCC(n5c(=O)[nH]c6ccccc65)CC4)ncnc3n2C)cn1 [Compound 181, ethyl (4-{9-methyl-6-[4-(2-oxo-2,3-dihydro-1H-benzimidazol-1-yl)piperidin-1-yl]-9H-purin-8-yl}-1H-pyrazol-1-yl)acetate]",250 to 500 nM
3,"CC(C)CNC(=O)c1nc2c(N3CCC(n4c(=O)[nH]c5ccccc54)CC3)ncnc2n1CC(F)(F)F [Compound 183, N-(2-methylpropyl)-6-[4-(2-oxo-2,3-dihydro-1H-benzimidazol-1-yl)piperidin-1-yl]-9-(2,2,2-trifluoroethyl)-9H-purine-8-carboxamide]",250 to 500 nM
4,"CCNC(=O)c1nc2c(N3CCC(n4c(=O)[nH]c5ccccc54)CC3)ncnc2n1CC [Compound 192, N,9-diethyl-6-[4-(2-oxo-2,3-dihydro-1H-benzimidazol-1-yl)piperidin-1-yl]-9H-purine-8-carboxamide]",50 to 250 nM
5,"CCn1c(C(=O)NCCCCO)nc2c(N3CCC(n4c(=O)[nH]c5ccccc54)CC3)ncnc21 [Compound 195, 9-ethyl-N-(4-hydroxybutyl)-6-[4-(2-oxo-2,3-dihydro-1H-benzimidazol-1-yl)piperidin-1-yl]-9H-purine-8-carboxamide]",< 50 nM
6,"CCn1c(C(=O)NC(C)C)nc2c(N3CCC(n4c(=O)[nH]c5ccccc54)CC3)ncnc21 [Compound 196, 9-ethyl-N-(1-methylethyl)-6-[4-(2-oxo-2,3-dihydro-1H-benzimidazol-1-yl)piperidin-1-yl]-9H-purine-8-carboxamide]",< 50 nM
7,"CCn1c(C(=O)NCC(C)(C)O)nc2c(N3CCC(n4c(=O)[nH]c5ccccc54)CC3)ncnc21 [Compound 197, 9-ethyl-N-(2-hydroxy-2-methylpropyl)-6-[4-(2-oxo-2,3-dihydro-1H-benzimidazol-1-yl)piperidin-1-yl]-9H-purine-8-carboxamide]",< 50 nM
8,"CCn1c(C(=O)NCCC(C)C)nc2c(N3CCC(n4c(=O)[nH]c5ccccc54)CC3)ncnc21 [Compound 198, 9-ethyl-N-(3-methylbutyl)-6-[4-(2-oxo-2,3-dihydro-1H-benzimidazol-1-yl)piperidin-1-yl]-9H-purine-8-carboxamide]",50 to 250 nM
9,"CC(C)Cc1nnc(-c2nc3c(N4CCC(n5c(=O)[nH]c6ccccc65)CC4)ncnc3n2C)o1 [Compound 204, 1-(1-{9-methyl-8-[5-(2-methylpropyl)-1,3,4-oxadiazol-2-yl]-9H-purin-6-yl}piperidin-4-yl)-1,3-dihydro-2H-benzimidazol-2-one]",< 50 nM
10,"Cn1c(C(=O)NCC2CC2)nc2c(N3CCC(n4c(=O)[nH]c5cc(F)ccc54)CC3)ncnc21 [Compound 205, N-(cyclopropylmethyl)-6-[4-(5-fluoro-2-oxo-2,3-dihydro-1H-benzimidazol-1-yl)piperidin-1-yl]-9-methyl-9H-purine-8-carboxamide]",50 to 250 nM
11,"Cc1ccc2[nH]c(=O)n(C3CCN(c4ncnc5c4nc(C(=O)NCC4CC4)n5C)CC3)c2c1 [Compound 206, N-(cyclopropylmethyl)-9-methyl-6-[4-(6-methyl-2-oxo-2,3-dihydro-1H-benzimidazol-1-yl)piperidin-1-yl]-9H-purine-8-carboxamide]",250 to 500 nM
12,"CCn1c(C(=O)NCc2nnc(C)o2)nc2c(N3CCC4(CC3)C(=O)Nc3ccccc34)ncnc21 [Compound 207, 9-ethyl-N-[(5-methyl-1,3,4-oxadiazol-2-yl)methyl]-6-(2-oxo-1,2-dihydro-1′H-spiro[indole-3,4′-piperidin]-1′-yl)-9H-purine-8-carboxamide]",250 to 500 nM
13,"CCn1c(C(=O)NC2COC2)nc2c(N3CCC(n4c(=O)[nH]c5ccccc54)CC3)ncnc21 [Compound 208, 9-ethyl-N-oxetan-3-yl-6-[4-(2-oxo-2,3-dihydro-1H-benzimidazol-1-yl)piperidin-1-yl]-9H-purine-8-carboxamide]",< 50 nM
14,"CCn1c(-c2nnc(C(C)C)o2)nc2c(N3CCC4(CC3)C(=O)Nc3ccccc34)ncnc21 [Compound 209, 1′-{9-ethyl-8-[5-(1-methylethyl)-1,3,4-oxadiazol-2-yl]-9H-purin-6-yl}spiro[indole-3,4′-piperidin]-2(1H)-one]",< 50 nM
15,"CCn1c(-c2nnc(C3CC3)o2)nc2c(N3CCC4(CC3)C(=O)Nc3ccccc34)ncnc21 [Compound 210, 1′-[8-(5-cyclopropyl-1,3,4-oxadiazol-2-yl)-9-ethyl-9H-purin-6-yl]spiro[indole-3,4′-piperidin]-2(1H)-one]",< 50 nM
16,"Cn1c(C(=O)NCC2CC2)nc2c(N3CCC4(CC3)C(=O)Nc3c(Cl)cccc34)ncnc21 [Compound 211, 6-(7-chloro-2-oxo-1,2-dihydro-1′H-spiro[indole-3,4′-piperidin]-1′-yl)-N-(cyclopropylmethyl)-9-methyl-9H-purine-8-carboxamide]",< 50 nM
17,"CCn1c(C(=O)NCC2CCC2)nc2c(N3CCC4(CC3)C(=O)Nc3ccccc34)ncnc21 [Compound 212, N-(cyclobutylmethyl)-9-ethyl-6-(2-oxo-1,2-dihydro-1′H-spiro[indole-3,4′-piperidin]-1′-yl)-9H-purine-8-carboxamide]",< 50 nM
18,CCn1c(C(=O)N2CC[C@@H](F)C2)nc2c(N3CCC4(CC3)C(=O)Nc3ccccc34)ncnc21 [Compound 213],< 50 nM
19,"CCn1c(C(=O)NC(C)C2CC2)nc2c(N3CCC4(CC3)C(=O)Nc3ccccc34)ncnc21 (centres unmarked) [Compound 214, N-(1-cyclopropylethyl)-9-ethyl-6-(2-oxo-1,2-dihydro-1′H-spiro[indole-3,4′-piperidin]-1′-yl)-9H-purine-8-carboxamide]",< 50 nM
20,"CCn1c(C(=O)NCC2(O)CC2)nc2c(N3CCC4(CC3)C(=O)Nc3ccccc34)ncnc21 [Compound 215, 9-ethyl-N-[(1-hydroxycyclopropyl)methyl]-6-(2-oxo-1,2-dihydro-1′H-spiro[indole-3,4′-piperidin]-1′-yl)-9H-purine-8-carboxamide]",< 50 nM

# Further lines, results first:
row,IC50,SMILES
1,< 50 nM,"CCn1c(-c2nnc(C(C)C)o2)nc2c(N3CCC(n4c(=O)[nH]c5ccccc54)CC3)ncnc21 [Compound 180, 1-(1-{9-ethyl-8-[5-(1-methylethyl)-1,3,4-oxadiazol-2-yl]-9H-purin-6-yl}piperidin-4-yl)-1,3-dihydro-2H-benzimidazol-2-one]"
2,< 50 nM,"CCc1nnc(-c2nc3c(N4CCC5(CC4)C(=O)Nc4ccccc45)ncnc3n2C)o1 [Compound 182, 1′-[8-(5-ethyl-1,3,4-oxadiazol-2-yl)-9-methyl-9H-purin-6-yl]spiro[indole-3,4′-piperidin]-2(1H)-one]"
3,< 50 nM,"Cn1c(-c2nnc(C3CC3)o2)nc2c(N3CCC4(CC3)C(=O)Nc3ccccc34)ncnc21 [Compound 184, 1′-[8-(5-cyclopropyl-1,3,4-oxadiazol-2-yl)-9-methyl-9H-purin-6-yl]spiro[indole-3,4′-piperidin]-2(1H)-one]"
4,< 50 nM,"CCn1c(C(=O)NCC2CCC2)nc2c(N3CCC(n4c(=O)[nH]c5ccccc54)CC3)ncnc21 [Compound 185, N-(cyclobutylmethyl)-9-ethyl-6-[4-(2-oxo-2,3-dihydro-1H-benzimidazol-1-yl)piperidin-1-yl]-9H-purine-8-carboxamide]"
5,< 50 nM,"CCn1c(C(=O)N2CC[C@@H](F)C2)nc2c(N3CCC(n4c(=O)[nH]c5ccccc54)CC3)ncnc21 [Compound 186, 1-[1-(9-ethyl-8-{[(3R)-3-fluoropyrrolidin-1-yl]carbonyl}-9H-purin-6-yl)piperidin-4-yl]-1,3-dihydro-2H-benzimidazol-2-one]"
6,< 50 nM,"CCn1c(C(=O)NC(C)C2CC2)nc2c(N3CCC(n4c(=O)[nH]c5ccccc54)CC3)ncnc21 (centres unmarked) [Compound 187, N-(1-cyclopropylethyl)-9-ethyl-6-[4-(2-oxo-2,3-dihydro-1H-benzimidazol-1-yl)piperidin-1-yl]-9H-purine-8-carboxamide]"
7,< 50 nM,"CCn1c(C(=O)NCC2(O)CC2)nc2c(N3CCC(n4c(=O)[nH]c5ccccc54)CC3)ncnc21 [Compound 188, 9-ethyl-N-[(1-hydroxycyclopropyl)methyl]-6-[4-(2-oxo-2,3-dihydro-1H-benzimidazol-1-yl)piperidin-1-yl]-9H-purine-8-carboxamide]"
8,< 50 nM,"CCn1c(C(=O)N2CC(F)(F)C2)nc2c(N3CCC(n4c(=O)[nH]c5ccccc54)CC3)ncnc21 [Compound 189, 1-(1-{8[(3,3-difluoroazetidin-1-yl)carbonyl]-9-ethyl-9H-purin-6-yl}piperidin-4-yl)-1,3-dihydro-2H-benzimidazol-2-one]"
9,< 50 nM,"CCn1c(C(=O)NCC(C)(C)C)nc2c(N3CCC(n4c(=O)[nH]c5ccccc54)CC3)ncnc21 [Compound 190, N-(2,2-dimethylpropyl)-9-ethyl-6-[4-(2-oxo-2,3-dihydro-1H-benzimidazol-1-yl)piperidin-1-yl]-9H-purine-8-carboxamide]"
10,< 50 nM,"CCn1c(C(=O)N2CCC(F)(F)C2)nc2c(N3CCC(n4c(=O)[nH]c5ccccc54)CC3)ncnc21 [Compound 191, 1-(1-{8-[(3,3-difluoropyrrolidin-1-yl)carbonyl]-9-ethyl-9H-purin-6-yl}piperidin-4-yl)-1,3-dihydro-2H-benzimidazol-2-one]"
11,< 50 nM,"CCCNC(=O)c1nc2c(N3CCC(n4c(=O)[nH]c5ccccc54)CC3)ncnc2n1CC [Compound 193, 9-ethyl-6-[4-(2-oxo-2,3-dihydro-1H-benzimidazol-1-yl)piperidin-1-yl]-N-propyl-9H-purine-8-carboxamide]"
12,< 50 nM,"CCn1c(C(=O)NC2CCC2)nc2c(N3CCC(n4c(=O)[nH]c5ccccc54)CC3)ncnc21 [Compound 194, N-cyclobutyl-9-ethyl-6-[4-(2-oxo-2,3-dihydro-1H-benzimidazol-1-yl)piperidin-1-yl]-9H-purine-8-carboxamide]"
